According to patent EP0973746B1, “SUBSTITUTED 3-CYANO QUINOLINES” (Wyeth Holdings Corporation, priority 1997, dated 1998):
Values after ≈ are worked out from the molar mass of the structure shown. Values joined by “and” are separate entries in the source; they are usually repeats but may differ in a detail not shown here. Equal entries are not always repeated. Structures can show the parent of a compound that is named as a salt. Where two headings read alike, the source gives them in different places.

Columns and labels:
A431 = test: Inhibition of cancer cell growth as measured by cell number, A431; assay type: cell-based, human; conditions: Table 8; for IC50: Homo sapiens, A-431, 48 h;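 as to all read-outs here: human A431 line, picked because it overexpresses epidermal growth factor receptor (EGFR)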
Text: (§1) The cell lines were chosen since they overexpressed epidermal growth factor receptor (EGFR) (i.e. A431) or HER2/neu (SKBR3), or had little to no expression of the these receptors (SW620, LOX, MCF7).

SKBR3 = test: Inhibition of cancer cell growth as measured by cell number, SKBR3; assay type: cell-based, human; conditions: Table 8; for IC50: Homo sapiens;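 as to all read-outs here: SK-BR-3 cells were selected as a line overexpressing HER2/neu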
Text: as §1

[1] = target: T1, His-tagged cytoplasmic domain of EGFR (Homo sapiens, UniProt P00533); test: Inhibition of Epidermal Growth Factor Receptor Kinase (EGF-R) using recombinant enzyme; assay type: biochemical; conditions: recombinant enzyme; RR-SRC peptide; average of the number of tests; read-out: IC50;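 also: radiometric kinase assay measuring radiolabeled phosphate transfer from ATP onto the peptide tyrosine by scintillation counting, control is reaction without compound, background subtracted, IC50 from dose-response curve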
T1 construct: containing the EGFR cDNA encoding amino acids 645 - 1186 preceded by Met-Ala-(His)6; made in house; host or cells: Sf9 cells, recombinant baculovirus vHcEGFR52

SW620 = test: Inhibition of cancer cell growth as measured by cell number, SW620; assay type: cell-based, human; conditions: Homo sapiens, SW-620, 48 h, Table 8;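 also: SW620 was included as a cell line with little or no EGFR or HER2/neu expression, in contrast to receptor-overexpressing lines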
Text: as §1

[2] = target: recombinant human MEK 1 (MAPKK) and recombinant human ERK2 (MAPK); test: Mitogen Activated Protein Kinase (MAPK) assay, two component coupled MEK 1 / ERK2; assay type: biochemical; conditions: separate entries for the same compound = evaluated more than one time;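 also: MEK 1-activated ERK2 phosphorylates MBP or Myc peptide with 33P-ATP, filter capture and scintillation counting, inhibitor preincubated with ERK2 30 min at 0 °C, inhibition relative to uninhibited control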
[3] = test system: human epidermoid tumors (A431); test: In vivo inhibition of the growth of human epidermoid tumors (A431); conditions: Table 11; for S/T = No. Survivors/No. Treated: Day +28 post tumor staging
Method: Representative compounds of this invention (listed below) were evaluated in an in vivo standard pharmacological test procedure which measured its ability to inhibit the growth of human epidermoid tumors. […] BALB/c nu/nu female mice (Charles River, Wilmington, MA) were used in this in vivo standard pharmacological test procedure. A unit of 5 X 10^6 cells were injected SC into mice. When tumors attained a mass of between 100 and 150 mg, the mice were randomized into treatment groups (day zero). […] Control animals received no drug. Tumor mass was determined every 7 days [(length X width^2)/2] for 28 days post staging. Relative tumor growth (Mean tumor mass on days 7, 14, 21, and 28 divided by the mean tumor mass on day zero) is determined for each treatment group.

[4] = cell number, Sulforhodamine B, 48 hours exposure
[5] = cell number, Sulforhodamine B, 48 hours exposure, read-out: IC50 SW620
[6] = cell number, Sulforhodamine B, 48 hours exposure, read-out: IC50 A431
[7] = SK-BR-3, cell number, Sulforhodamine B, 48 hours exposure, read-out: IC50 SKBR3
[8] = read-out: IC50 SW620, cell number, Sulforhodamine B, 48 hours exposure
[9] = read-out: IC50 A431, cell number, Sulforhodamine B, 48 hours exposure
[10] = SK-BR-3, 48 h, read-out: IC50 SKBR3, cell number, Sulforhodamine B, 48 hours exposure
[11] = 80 mg/kg/dose IP on days 1,5 and 9
[12] = 80 mg/kg/dose PO on days 1 through 10

Row | Compound | IC50 [1] | IC50 [2] | further results
1 | 4-Dimethylamino-but-2-enoic acid [4-(3-bromophenylamino)-3-cyano-quinolin-6-yl]-amide [Example 99] | 30 nM |  | IC50 A431 (A431; [4]): 0.3 µg/mL and 0.159 µg/mL; IC50 SKBR3 (SKBR3; [4]): 0.1 µg/mL and 0.078 µg/mL
2 | CCOc1cc2ncc(C#N)c(NCc3cccc(Br)c3)c2cc1OCC [Example 61, 4-(3-Bromophenylmethylamino)-6,7-diethoxy-3-quinolinecarbonitrile] |  | > 100000 nM | IC50 (SW620; [5]): 1.07 µg/mL (≈ 2.5 µM); IC50 (A431; [6]): 0.341 µg/mL (≈ 0.8 µM); IC50 (SKBR3; [7]): 1.09 µg/mL (≈ 2.57 µM)
3 | C=CC(=O)Nc1ccc2ncc(C#N)c(Nc3cccc(F)c3)c2c1 [Example 88, N-[3-Cyano-4-(3-fluorophenylamino)quinolin-6-yl]acrylamide] | 80 nM |  | 
4 | C=CC(=O)Nc1cc(CN(C)C)c2ncc(C#N)c(Nc3cccc(Br)c3)c2c1 [Example 111, N-{4-[(3-Bromophenyl)amino]-3-cyano-8-dimethylaminomethyl-6-quinolinyl}-2-propenamide] |  |  | IC50 (SW620; [5]): 2.02 µg/mL (≈ 4.48 µM); IC50 (A431; [6]): 3.05 µg/mL (≈ 6.76 µM); IC50 (SKBR3; [7]): 3.32 µg/mL (≈ 7.38 µM)
5 | CC(=O)Nc1cc(CN(C)C)c2ncc(C#N)c(Nc3cccc(Br)c3)c2c1 [Example 112, N-{4-[(3-Bromophenyl)amino]-3-cyano-8-dimethylaminomethyl-6-quinolinyl} acetamide] |  | > 100000 nM | IC50 (SW620; [8]): > 5 µg/mL; IC50 (A431; [9]): > 5 µg/mL; IC50 (SKBR3; [10]): > 5 µg/mL
6 | N#Cc1cnc2ccc(N)cc2c1Nc1cccc(I)c1 [Example 130, 6-Amino-4-[(3-iodophenyl)amino]-3-quinolinecarbonitrile] | 100 nM | > 100000 nM | 
7 | CC#CC(=O)Nc1ccc2ncc(C#N)c(Nc3cccc(C)c3)c2c1 [Example 132, N-{3-Cyano-4-[(3-methylphenyl)amino]-6-quinolinyl}-2-butynamide] | 600 nM | > 100000 nM | 
8 | Cc1cccc(Nc2c(C#N)cnc3ccc(N)cc23)c1 [Example 133, 6-Amino-4-[(3-methylphenyl)amino]-3-quinolinecarbonitrile] | 6 nM | > 100000 nM | 
9 | C=CC(=O)Nc1ccc2ncc(C#N)c(Nc3cccc(Cl)c3)c2c1 [Example 135, N-4-[(3-Chlorophenyl)amino]-3-cyano-6-guinolinyl-2-propenarnide] | 10 nM |  | 
10 | CC#CC(=O)Nc1ccc2ncc(C#N)c(Nc3cccc(OC)c3)c2c1 [Example 139, N-{3-Cyano-4-[(3-methoxyphenyl)amino]-6-quinolinyl}-2-butynamide] | 500 nM | 35000 nM | 
11 | CC#CC(=O)Nc1ccc2ncc(C#N)c(Nc3ccc(F)c(Cl)c3)c2c1 [Example 143, N-{4-[(3-Chloro-4-fluoro-phenyl)amino]-3-cyano-6-quinolinyl}-2-butynamide] | 30 nM | 40000 nM | 
12 | C=CC(=O)Nc1ccc2ncc(C#N)c(Nc3ccc(F)c(Cl)c3)c2c1 [Example 144, N-{4-[(3-Chloro-4-fluorophenyl)amino]-3-cyano-6-quinolinyl}-2-propenamide] | 65 nM | 40000 nM | 
13 | N#Cc1cnc2ccc(N)cc2c1Nc1ccc(Br)cc1 [Example 152, 6-Amino-4-[(4-bromophenyl)amino]-3-quinolinecarbonitrile] | 100 nM |  | 
14 | C=C(CN1CCOCC1)C(=O)Nc1ccc2ncc(C#N)c(Nc3cccc(Br)c3)c2c1 [Example 171, N-{4-[(3-Bromophenyl)amino]-3-cyano-6-quinolinyl}-2-morpholin-4-ylmethyl-2-propenamide] | 6.5 nM |  | 
15 | CCN(CC)CC=CC(=O)Nc1ccc2ncc(C#N)c(Nc3ccc(F)c(Br)c3)c2c1 [Example 173, N-{4-[(3-Bromo-4-fluorophenyl)amino]-3-cyano-6-quinolinyl}-4-diethylamino-2-butenamide] | 30 nM | 8000 nM | 
16 | COc1cc2ncc(C#N)c(Nc3ccc(F)c(Br)c3)c2cc1NC(=O)C=CCN1CCOCC1 [Example 175, N-{4-[(3-Bromo-4-fluorophenyl)amino]-3-cyano-7-methoxy-6-quinolinyl}-4-morpholino-2-butenamide] | 300 nM |  | IC50 (SW620; [8]): 4.95 µg/mL (≈ 9.16 µM); IC50 (A431; [9]): 0.144 µg/mL (≈ 0.266 µM); IC50 (SKBR3; [10]): 0.18 µg/mL (≈ 0.333 µM)

Row | Compound | IC50 [1] | IC50 [2] | further results
17 | CN(C)C/C=C\C(=O)Nc1ccc2ncc(C#N)c(Nc3ccc(F)c(Cl)c3)c2c1 [Example 184, N-[4-[(3-Chloro-4-fluorophenyl)amino]-3-cyano-6-quinolinyl]-4-dimethylamino-(Z)-2-butenamide] | 1700 nM |  | IC50 (SW620; [8]): 0.463 µg/mL (≈ 1.09 µM); IC50 (A431; [9]): 0.158 µg/mL (≈ 0.373 µM); IC50 (SKBR3; [10]): 0.3 µg/mL (≈ 0.708 µM)
18 | COC/C=C\C(=O)Nc1ccc2ncc(C#N)c(Nc3ccc(F)c(Cl)c3)c2c1 [Example 185, N-[4-[(3-Chloro-4-fluorophenyl)amino]-3-cyano-6-quinolinyl]-4-methoxy-(Z)-2-butenamide] | ≥ 10000 nM |  | IC50 (SW620; [5]): 2.18 µg/mL (≈ 5.31 µM); IC50 (A431; [6]): 0.34 µg/mL (≈ 0.828 µM); IC50 (SKBR3; [7]): 1.11 µg/mL (≈ 2.7 µM)
19 | CCOc1cc2ncc(C#N)c(Nc3cccc(Br)c3)c2cc1NC(=O)C=CCN(C)C [Example 216, 4-Dimethylamino-but-2-enoic acid [4-(3-bromo-phenylamino)-3-cyano-7-ethoxy-quinolin-6-yl]-amide] |  |  | IC50 (SKBR3; [10]): 0.012 µg/mL (≈ 0.0243 µM); IC50 SKBR3 (SKBR3; [4]): 0.015 µg/mL (≈ 0.0303 µM); %T/C Day 7 [3, 11]: 14%; %T/C Day 14 [3, 11]: 12%; %T/C Day 21 [3, 11]: 17%; %T/C Day 28 [3, 11]: 19%; S/T = No. Survivors/No. Treated [3, 11]: 5/5; %T/C Day 7 [3, 12]: 6%; %T/C Day 14 [3, 12]: 6%; %T/C Day 21 [3, 12]: 12%; %T/C Day 28 [3, 12]: 21%; S/T = No. Survivors/No. Treated [3, 12]: 5/5
20 | COc1cc(NC(=O)C=CCN(C)C)cc2c(Nc3cccc(Br)c3)c(C#N)cnc12 [Example 224] | 1000 nM |  | 
21 | CCOc1cc2ncc(C#N)c(Nc3ccc(F)c(Cl)c3)c2cc1OCC [Example 256, 4-(3-Chloro-4-fluorophenylamino)-6,7-diethoxy-3-quinolinecarbonitrile] | 100 nM |  | 
22 | COc1cc2ncc(C#N)c(Nc3cccc(N)c3)c2cc1OC [Example 264, 4-(3-Aminophenylamino)-6,7-dimethoxy-3-quinolinecarbonitrile] | 500 nM | 3000 nM | 
23 | COc1cc2ncc(C#N)c(Nc3cccc(CS)c3)c2cc1OC [Example 270] | 10 nM | > 100000 nM | 
24 | COc1cc2c(Nc3cccc(Br)c3)c(C#N)cnc2cc1OCCCN1CCOCC1 [Example 313, 4-(3-Bromo-phenylamino)-6-methoxy-7-(3-morpholin-4-yl-propoxy)-quinoline-3-carbonitrile] | 400 nM | > 100000 nM | 
25 | N#Cc1cnc2ccc(NC(=O)/C=C/Cl)cc2c1Nc1cccc(Br)c1 [Example 326, N-[4-(3-Bromo-phenylamino)-3-cyano-quinolin-6-yl]-3-chloro-(E) acrylamide] | 0.05 nM | 35000 nM | 
26 | N#Cc1cnc2ccc(NC(=O)/C=C\Cl)cc2c1Nc1cccc(Br)c1 [Example 327, N-[4-(3-Bromo-phenylamino)-3-cyano-quinolin-6-yl]-3-chloro-(Z)-acrylamide] | 10 nM |  | 
27 | COc1cc2ncc(C#N)c(Nc3ccc(Cl)cc3F)c2cc1N [Example 360, 6-Amino-4[(4-Chloro-2-fluorophenyl)amino]-7-methoxy-3-quinolinecarbonitrile] | 500 nM |  | 
28 | C=CC(=O)Nc1ccc2ncc(C#N)c(Nc3ccc(Br)c(Br)c3)c2c1 [Example 380, N-[3-Cyano-4-(3,4-dibromophenylamino)quinolin-6-yl]acrylamide] | 7 nM | > 100000 nM | 
29 | C=C(C)C(=O)Nc1ccc2ncc(C#N)c(Nc3cccc(Br)c3)c2c1 [Example 383, N-[4-(3-Bromophenylamino)-3-cyanoquinolin-6-yl]-2-methylacrylamide] | 7 nM | > 100000 nM | 
30 | CN(C)c1ccc2ncc(C#N)c(Nc3cccc(Br)c3)c2c1 [Example 395, 4-(3-Bromophenylamino)-6-dimethylaminoquinoline-3-carbonitrile Hydrochloride] | 500 nM | 15000 nM | 
31 | COc1cccc(Nc2c(C#N)cnc3ccc(N(C)C)cc23)c1.Cl [Example 396, 6-Dimethylamino-4-(3-methoxyphenylamino)quinoline-3-carbonitrile Hydrochloride] |  | 50000 nM | IC50 (SW620; [5]): 2.7 µg/mL; IC50 (A431; [6]): 0.3 µg/mL; IC50 (SKBR3; [7]): 0.2 µg/mL
